The results in this text go back to paper PMC7073080, “Characterization of Convergent Suppression by UCL-2077 (3-(Triphenylmethylaminomethyl)pyridine), Known to Inhibit Slow Afterhyperpolarization, of erg-Mediated Potassium Currents and Intermediate-Conductance Calcium-Activated Potassium Channels” (International Journal of Molecular Sciences, 2020).

This test has as its target T1, erg-mediated K+ channel (Kerg, KV11.1) (Rattus norvegicus, UniProt O08962).
T1 construct: gene Kcnh2; native channel in pituitary GH3 cells
T1 sequence (O08962 1-1163): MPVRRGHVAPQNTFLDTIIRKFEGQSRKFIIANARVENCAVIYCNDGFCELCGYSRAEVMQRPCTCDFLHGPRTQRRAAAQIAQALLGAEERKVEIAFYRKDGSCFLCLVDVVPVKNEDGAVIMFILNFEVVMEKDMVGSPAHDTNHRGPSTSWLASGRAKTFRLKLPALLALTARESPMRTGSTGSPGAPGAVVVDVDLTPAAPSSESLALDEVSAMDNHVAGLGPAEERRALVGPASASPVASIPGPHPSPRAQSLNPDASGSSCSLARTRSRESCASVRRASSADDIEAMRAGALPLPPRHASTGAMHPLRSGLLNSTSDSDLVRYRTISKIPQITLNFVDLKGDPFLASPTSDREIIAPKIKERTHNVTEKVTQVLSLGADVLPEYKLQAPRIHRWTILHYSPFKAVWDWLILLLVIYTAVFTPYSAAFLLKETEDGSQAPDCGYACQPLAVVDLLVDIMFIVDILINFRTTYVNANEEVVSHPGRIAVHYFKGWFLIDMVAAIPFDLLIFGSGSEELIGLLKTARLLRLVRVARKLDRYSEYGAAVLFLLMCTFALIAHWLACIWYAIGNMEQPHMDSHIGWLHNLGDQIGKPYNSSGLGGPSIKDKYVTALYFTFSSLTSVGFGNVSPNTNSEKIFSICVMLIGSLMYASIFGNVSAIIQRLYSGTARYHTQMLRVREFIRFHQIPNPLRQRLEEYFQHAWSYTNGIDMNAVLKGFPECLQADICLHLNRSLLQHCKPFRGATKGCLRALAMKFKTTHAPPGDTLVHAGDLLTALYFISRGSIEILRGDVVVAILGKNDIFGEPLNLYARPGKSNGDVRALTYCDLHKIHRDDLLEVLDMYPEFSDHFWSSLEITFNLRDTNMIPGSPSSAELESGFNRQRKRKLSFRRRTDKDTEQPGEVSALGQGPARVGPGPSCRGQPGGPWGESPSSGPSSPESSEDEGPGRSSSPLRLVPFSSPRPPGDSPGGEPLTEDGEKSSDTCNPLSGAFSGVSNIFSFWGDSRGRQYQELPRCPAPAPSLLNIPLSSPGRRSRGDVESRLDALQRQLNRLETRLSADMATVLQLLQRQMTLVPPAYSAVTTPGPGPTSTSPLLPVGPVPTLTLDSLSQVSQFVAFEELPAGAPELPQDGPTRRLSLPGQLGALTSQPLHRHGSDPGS
The test can be described thus: whole-cell patch clamp, concentration-response of IK(erg); KCNH2 siRNA knockdown. It counts as cell-based. To be noted: gh3 cells. (In general: Patch clamp records ionic current or voltage across a cell membrane.)

The term IC50 denotes the concentration that gives 50% inhibition. A lower IC50 goes with greater potency. Regarding `c1ccc(C(NCc2cccnc2)(c2ccccc2)c2ccccc2)cc1` [UCL-2077, 3-(triphenylmethylaminomethyl)pyridine], half-maximal inhibition (IC50) was put at 4.7 µM.
